Values of other authors in patent publication US8882743B2, “Apparatus and method for application of a pharmaceutical to the tympanic membrane for photodynamic laser myringotomy” (priority 2006, dated 2014).

System: tympanic membrane
Details: lance myringotomy with concomitant mitomycin-C versus myringotomy without mitomycin-C

CO[C@@]12[C@H](COC(N)=O)C3=C(C(=O)C(C)=C(N)C3=O)N1C[C@@H]1N[C@@H]12 [mitomycin-C]
time required for closure of the fistulae formed: statistically significant increase
